Test results taken from US6977254B2, “Hydroxy cyclohexenyl phenyl carboxamides tocolytic oxytocin receptor antagonists” (Wyeth, priority 2001, dated 2005).

Biological target: T1, human V2 vasopressin receptor subtype (Homo sapiens, UniProt P30518)
T1 construct: host or cells: CHO cells, stably transfected (pZeoSV vector); membranes
Assay: Vasopressin binding in CHO cell membranes expressing human vasopressin V2 subtype receptors ([3H]arginine vasopressin)
Settings: 100 nM, value without parentheses
Excerpt: Vasopressin Binding in Chinese Hamster Ovary Cell Membranes Expressing Human Vasopressin V2 Subtype Receptors
Chinese Hamster Ovary (CHO) cells stably transfected with the human V2 subtype receptors were obtained from M. Thibonnier, Case Western Reserve University School of Medicine, Cleveland, Ohio.
A. Passaging and Amplification of Cells:
CHO cells transfected with the human vasopressin V2 subtype receptors obtained from M. Thibonnier (pZeoSV vector) are allowed to grow to confluency (approx. >90%) in T-150 flasks under sterile conditions, in a cell culture medium of F-12 Nutrient Mixture (HAM) with L-glutamine (Gibco Cat. #11765-054) containing 15 mM HEPES (Gibco Cat. #15630-080), 1% antibiotic/antimycotic (add 5 mL 100×, Gibco Cat. #15240-062 per 500 mL F-12), 250 μg/mL Zeocin (add 1.25 mL of 100 mg/mL Invitrogen R-250-01 per 500 mL F-12) and 10% Fetal Bovine Serum (Qualified, heat inactivated, Gibco Cat. #16140-063). The medium is removed by aspiration and the cells washed with 10 mL of Hank's Balanced Salt solution (Gibco Cat. #14175-095). The salt solution is removed by aspiration and the cells trypsinized with 5 mL of trypsin-EDTA (0.05% trypsin, 0.53 mM EDTA-4Na, Gibco Cat. #25300-070) for 1 min. The trypsin is removed by aspiration and the cells dislodged by tapping. Cell Culture medium (e.g. 30 mL for 1:30 split) is immediately added and mixed well to inactivate trypsin. 1 mL of detached cells is added to new culture flasks containing fresh Cell Culture medium (e.g. into 25 mL per T-150 flask), and mixed gently. The cells are incubated at 37° C. in 5% CO2. The medium is changed at 3 to 4 day interval (or as appropriate). The cells grow to confluency (approx. >75%-95%) within 7-8 days. All steps are done under sterile conditions.
The cells are washed twice gently with Hank's Balanced Salt solution (e.g. use 10 mL per T-150 flask). The excess solution is removed and the cells bathed for 15-30 min. in an enzyme-free Cell Dissociation Buffer (e.g. use 8 mL Hank's Based, Gibco Cat. #13150-016 per T-150 flask) until cells are loosened. The contents are transferred to centrifuge tubes (50 mL size) kept in ice bath. All subsequent steps are done at 4° C. The tubes are centrifuged at 300×g for 15 min (1380 rpm on SORVAL, Model RT6000D, using rotor for 50 mL tubes). The supernatant is discarded and the cells suspended in homogeneizing buffer(10 mM Tris-HCl containing 0.25 M sucrose and 1 mM EDTA, pH 7.4) ensuring that the volume of the buffer is about ten times the volume of the cell pellet. The cells are pooled into a centrifuge tube (50 mL) and homogenized with Polytron at setting 6 for 10 sec. The homogenate is transferred into a Potter-Elvjehm homogeneizer and homogenized with 3 strokes. The homogenate is centrifuged at 1500×g for 60 min at 4° C. (3100 rpm using SORVAL, model RT6000D, using rotor for 50 mL tubes). The pellet is discarded. The supernatant is centrifuged at 100,000×g for 60 min. at 4° C. (Beckman L8-80M ultracentrifuge; spin at 37,500 rpm with rotor type 70 Ti for 50 mL tubes; 38,000 rpm with type 80Ti for 15 mL tubes; or 35,800 rpm with rotor type 45Ti). The supernantant is discarded and the pellet suspended in 3 to 4 mL of Tris buffer (50 mM TRIS-HCl, pH 7.4). The protein content is estimated by the Bradford or Lowry method. The volume of the membrane suspension is adjusted with the membrane buffer (50 mM Tris-HCl containing 0.1% BSA and 0.1 mM PMSF) to give 3.0 mg/mL (or as appropriate) of protein. The membranes are aliquoted and stored at −70° C.
C. Radioligand Binding Assay:
In wells of a 96-well format microtiter plate, is added 90, 110 or 130 μL (to make up a final volume of 200 μL) of assay buffer containing 50 mM of Tris-HCl (pH 7.4), […], 1 mg % aprotinin, 1 mg % leupeptin, 2 mg % 1,10-phenanthroline, 10 mg % trypsin inhibitor, and 0.1 mM PMSF. The inhibitors are added on the day of the experiment. […]

T1 sequence (P30518 whole entry): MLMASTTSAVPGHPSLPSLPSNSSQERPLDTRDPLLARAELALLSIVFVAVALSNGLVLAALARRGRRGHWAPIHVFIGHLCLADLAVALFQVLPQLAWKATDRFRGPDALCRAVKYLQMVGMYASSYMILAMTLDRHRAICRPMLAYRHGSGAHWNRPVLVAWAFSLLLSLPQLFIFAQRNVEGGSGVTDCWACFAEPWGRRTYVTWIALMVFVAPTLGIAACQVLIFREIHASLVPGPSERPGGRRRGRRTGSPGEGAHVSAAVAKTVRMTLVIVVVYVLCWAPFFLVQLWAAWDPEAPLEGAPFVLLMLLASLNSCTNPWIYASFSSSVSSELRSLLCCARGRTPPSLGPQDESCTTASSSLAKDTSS

inhibition at 0.1 µM [%] | V2 % inhibition @ 100 nM [%] | Compound
15 |  | Cc1cc(C(=O)N2Cc3ccc(C(=O)O)n3Cc3ccccc32)ccc1C1=CCCCC1 [Example 5E, 10-(4-Cyclohex-1-en-1-yl-3-methyl-benzoyl)-10,11-dihydro-5H-pyrrolo[2,1-c][1,4]benzodiazepine-3-carboxylic acid]
4 |  | COc1cc(C2=CCCCC2)c(Cl)cc1C(=O)N1Cc2ccc(C(=O)O)n2Cc2ccccc21 [Example 1G, 10-(5-Chloro-4-cyclohex-1-en-1-yl-2-methoxybenzoyl)-10,11-dihydro-5H-pyrrolo[2,1-c][1,4]benzodiazepine-3-carboxylic acid]
 | 46 | Cc1cc(C(=O)N2Cc3ccc(C(=O)N(CCO)CCO)n3Cc3ccccc32)ccc1C1=CCCc2ccccc21 [Example 16, {10-[4-(3,4-Dihydro-naphthalen-1-yl)-3-methyl-benzoyl]-10,11-dihydro-5H-pyrrolo[2,1-c][1,4]benzodiazepin-3-yl}-3-carboxylic acid bis-(2-hydroxy-ethyl)-amide]
10 |  | COC(=O)[C@H](CO)NC(=O)c1ccc2n1Cc1ccccc1N(C(=O)c1ccc(C3=CCCCC3)c(C)c1)C2 [Example 11, (2S)-2-{[10-(4-Cyclohex-1-en-1-yl-3-methyl-benzoyl)-10,11-dihydro-5H-pyrrolo[2,1-c][1,4]benzodiazepine-3-carbonyl]-amino}-3-hydroxy-propionic acid methyl ester]
11 |  | CCOC(=O)[C@H](Cc1ccc(O)cc1)NC(=O)c1ccc2n1Cc1ccccc1N(C(=O)c1ccc(C3=CCCCC3)c(C)c1)C2 [Example 9, (2S)-2-{[10-(4-Cyclohex-1-en-1-yl-3-methyl-benzoyl)-10,11-dihydro-5H-pyrrolo[2,1-c][1,4]benzodiazepine-3-carbonyl]-amino}-3-(4-hydroxy-phenyl)-propionic acid ethyl ester]
9 |  | COC(=O)[C@@H](CO)NC(=O)c1ccc2n1Cc1ccccc1N(C(=O)c1ccc(C3=CCCCC3)c(C)c1)C2 [Example 12, (2R)-2-{[10-(4-Cyclohex-1-en-1-yl-3-methyl-benzoyl)-10,11-dihydro-5H-pyrrolo[2,1-c][1,4]benzodiazepine-3-carbonyl]-amino}-3-hydroxy-propionic acid methyl ester]
14 |  | Cc1cc(C(=O)N2Cc3ccc(C(=O)N(C)C[C@@H]4OC(=O)O[C@H]4[C@H](O)[C@H]4COC(=O)O4)n3Cc3ccccc32)ccc1C1=CCCCC1 [Example 7, 10-(4-Cyclohex-1-en-1-yl-3-methylbenzoyl)-N-[((4S,5S)-5-{(R)-hydroxy[(4R)-2-oxo-1,3-dioxolan-4-yl]methyl}-2-oxo-1,3-dioxolan-4-yl)methyl]-N-methyl-10,11-dihydro-5H-pyrrolo[2,1-c][1,4]benzodiazepine-3-carboxamide]
40 |  | Cc1cc(C(=O)N2Cc3ccc(C(=O)O)n3Cc3ccccc32)ccc1C1=CCCc2ccccc21 [Example 15B, 10-[4-(3,4-Dihydro-naphthalen-1-yl)-3-methyl-benzoyl]-10,11-dihydro-5H-pyrrolo[2,1-c][1,4]benzodiazepine-3-carboxylic acid]
 | 15 | Cc1cc(C(=O)N2Cc3ccc(C(=O)N[C@@H](Cc4ccc(O)cc4)C(=O)O)n3Cc3ccccc32)ccc1C1=CCCCC1 [Example 10]
 | 1 | Cc1cc(C(=O)N2Cc3ccc(C(=O)C(Cl)(Cl)Cl)n3Cc3ccccc32)ccc1C1=CCCCC1 [Example 5D, 2,2,2-Trichloro-1-[10-(4-cyclohex-1-en-1-yl-3-methyl-benzoyl)-10,11-dihydro-5H-pyrrolo[2,1-c][1,4]benzodiazepin-3-yl]-methanone]
9 |  | Cc1cc(C(=O)N2Cc3ccc(C(=O)N[C@@H](CO)C(=O)O)n3Cc3ccccc32)ccc1C1=CCCCC1 [Example 13, (2S)-2-{[10-(4-Cyclohex-1-en-1-yl-3-methyl-benzoyl)-10,11-dihydro-5H-pyrrolo[2,1-c][1,4]benzodiazepine-3-carbonyl]-amino}-3-hydroxy-propionic acid]
 | 7 | Cc1cc(C(=O)N2Cc3ccc(C(=O)N4CCN(CCO)CC4)n3Cc3ccccc32)ccc1C1=CCCCC1 [Example 17, {10-[4-(1-Cyclohex-1-en-1-yl)-3-methylbenzoyl]-10,11-dihydro-5H-pyrrolo[2,1-c][1,4]benzodiazepin-3-yl}[4-(2-hydroxyethyl)-1-piperazinyl]methanone]

Same assay, conditions: value in parentheses

IC50 [nM] | Compound
1560 | COc1cc(C2=CCCCC2)c(Cl)cc1C(=O)N1Cc2ccc(C(=O)N(C)C[C@H](O)[C@@H](O)[C@H](O)[C@H](O)CO)n2Cc2ccccc21 [Example 1, 1-[[[10-[5-Chloro-4-(1-cyclohex-1-en-1-yl)-2-methoxybenzoyl]-10,11-dihydro-5H-pyrrolo[2,1-c][1,4]benzodiazepin-3-yl]carbonyl]methylamino]-1-deoxy-D-glucitol]
558 | Cc1cc(C(=O)N2Cc3ccc(C(=O)N(C)C[C@H](O)[C@H]4OC(=O)O[C@@H]4[C@H](O)CO)n3Cc3ccccc32)ccc1C1=CCCCC1 [Example 6, 10-(4-Cyclohex-1-en-1-yl-3-methylbenzoyl)-N-((2S)-2-{(4R,5R)-5-[(1R)-1,2-dihydroxyethyl]-2-oxo-1,3-dioxolan-4-yl}-2-hydroxyethyl)-N-methyl-10,11-dihydro-5H-pyrrolo[2,1-c][1,4]benzodiazepine-3-carboxamide]
> 3000 | COC[C@@H](OC)[C@@H](OC)[C@H](OC)[C@H](CN(C)C(=O)c1ccc2n1Cc1ccccc1N(C(=O)c1ccc(C3=CCCCC3)c(C)c1)C2)OC [Example 8, 10-(4-Cyclohex-1-en-1-yl-3-methylbenzoyl)-N-methyl-N-[(2S,3R,4R,5R)-2,3,4,5,6-pentamethoxyhexyl]-10,11-dihydro-5H-pyrrolo[2,1-c][1,4]benzodiazepine-3-carboxamide]
2620 | COc1cc(C2=CCCCC2)c(Cl)cc1C(=O)N1Cc2ccc(C(=O)N(C)C[C@@H]3OC(=O)O[C@H]3[C@H](O)[C@H]3COC(=O)O3)n2Cc2ccccc21 [Example 3, 10-(5-Chloro-4-cyclohex-1-en-1-yl-2-methoxybenzoyl)-N-[((4S,5S)-5-{(R)-hydroxy[(4R)-2-oxo-1,3-dioxolan-4-yl]methyl}-2-oxo-1,3-dioxolan-4-yl)methyl]-N-methyl-10,11-dihydro-5H-pyrrolo[2,1-c][1,4]benzodiazepine-3-carboxamide]
1490 | COc1cc(C2=CCCCC2)c(Cl)cc1C(=O)N1Cc2ccc(C(=O)N(C)CC(O)CO)n2Cc2ccccc21 (stereo not shown) [Example 4, 10-(5-Chloro-4-cyclohex-1-en-1-yl-2-methoxybenzoyl)-N-(2,3-dihydroxypropyl)-N-methyl-10,11-dihydro-5H-pyrrolo[2,1-c][1,4]benzodiazepine-3-carboxamide]
121 | Cc1cc(C(=O)N2Cc3ccc(C(=O)N(C)C[C@H](O)[C@@H](O)[C@H](O)[C@H](O)CO)n3Cc3ccccc32)ccc1C1=CCCc2ccccc21 [Example 15]
2110 | Cc1cc(C(=O)N2Cc3ccc(C(=O)N(C)C[C@H](O)[C@@H](O)[C@H](O)[C@H](O)CO)n3Cc3ccccc32)ccc1C1=CCCCC1 [Example 5]
